Legend:
[1] = test system: patient-derived pancreatic cancer cell line (Patient 25)

GSK126
Cell viability (%) relative to mock vehicle-treated cells (title: GSK126-induced cytotoxicity (%)) (BxPC3): 96.07% | Cell viability (%) relative to mock vehicle-treated cells (title: GSK126-induced cytotoxicity (%)) [1]: 80.82% | Cell viability (%) relative to mock vehicle-treated cells (title: GSK126-induced cytotoxicity (%)) (4T1): 113.57% | Cell viability as a percentage of control (cells treated with mock EVs and vehicle control) (786-0 cells): 98.35 percentage of control | Cell viability (%) relative to mock vehicle-treated cells (title: GSK126-induced cytotoxicity (%)) (786-0): 111.99% | Cell viability as a percentage of control (cells treated with mock EVs and vehicle control) (Patient 25): 64.14 percentage of control | Cell viability as a percentage of control (cells treated with mock EVs and vehicle control) (BXPC3 cells): 90.78 percentage of control

Reference: US11739350B2 (priority 2018, dated 2023)
